Measurements from patent EP2857399A1, “Compounds useful for the treatment of PDE5 inhibitor-poorly responsive erectile dysfunction” (GenKyoTex SA, priority 2013, dated 2015).

Test system: diabetic GK rats
Assay: Erectile response to electrical stimulation of the cavernous nerve (ICP monitoring) in a rat model of type II diabetes mellitus associated erectile dysfunction with impaired sildenafil response
Type: in vivo, Goto-Kakizaki (GK) rats
Experimental: The efficacy of compounds of Formula (I) for restoring or increasing responsiveness to treatment with a PDE5 inhibitor (sildenafil) is assessed in a rat model of type II diabetes mellitus associated erectile dysfunction in Goto-Kakizaki (GK) rats. Those rats show the main features of the metabolic, hormonal and vascular disorders usually described in T2D patients (Portha et al., 2001, Diabetes 50 (Suppl. 1): S89-S93; Portha et al., 1991, Diabetes 40, 486-491).
Adult male Wistar and age-matched Goto-Kakizaki (GK) rats (obtained by repeated inbreeding of non-diabetic Wistar rats selected at the upper limit or normal distribution if glucose tolerance as described in Goto et al., 1975, Proc. Jpn Acad, 51, 80-5 are housed at least 7 days prior to the beginning of the experiments with free access to standard chow and water and maintained on an inversed 12 h dark/light cycle (10:00/22:00).
At 15 weeks of age, treatment period is started; n=24 GK rats (Groups 4 & 5) receive a dose of compound 5 (30 mg/kg) while n=24 GK (Groups 1 and 3) rats and n=12 Wistar (Group 2) rats receive an equivalent volume of vehicle (25% HPβCD) of compound 5 by daily oral gavage for 28 days.
On day 29th after starting treatment administration, the rats (19 weeks of age) undergo an evaluation of their erectile response measured after electrical stimulation (ES) of the cavernous nerve (CN) by monitoring intracavernous pressure (ICP). For this purpose, rats are anesthetized (urethane […]) after a 3-hour fasting period (necessary for plasma glucose dosage), their temperature maintained at 37°C using a homeothermic blanket. The carotid artery was catheterized to record blood pressure (BP) via a pressure transducer (Elcomatic 750, Glasgow, UK). Both jugular veins were also catheterised to allow intravenous injections. CN is surgically exposed at the lateral aspect of the prostate and mounted on a bipolar platinum electrode connected to an electrical stimulator (AMS 2100, Phymep, France).
As a consequence, there are 16 hours between animals receiving their final administration of compound 5 or vehicle and initiation of evaluation of their erectile function. Rats were anesthetized and then received a 1st intravenous injection (iv) 25%HPβCD, the vehicle of compound 5, 60 minutes prior to the evaluation period of treatment effect. All rats also received a 2nd iv injection of either sildenafil (Sequoia research, Pangbourne, UK) 0.3mg/kg (groups 3 & 5) or normal saline, the vehicle of sildenafil, (groups 1, 2, 4) 56 minutes after the first injection.
At T=-15 minutes, the continuous recording of BP and ICP started. […] Two stimulations of the CN at 15Hz, 1 ms for 45 s were performed to elicit an increase of ICP to certify the correct implantation of the catheter and to assess baseline erectile response prior treatment
At T=0 minute, 25% HPβCD was injected intravenously.
At T+4 minutes and T+30 minutes, the CN was stimulated at 10Hz, 1ms for 45s.At T+56 minutes, sildenafil (0.3mg/kg) or normal saline was intravenously injected.
At T+ 60 minutes, and at 3 minutes intervals thereafter, the CN was stimulated at 6V, 1 ms for 45 s by different stimulation frequencies (10 Hz then 0, 2.5, 5, 7.5, 12.5 and 15 Hz) in a randomized manner in order to assess the erectile responses. These different electrical stimulations were repeated twice in view of establishing a frequency-response curve for each animal.
At T+ 120 minutes, the recording ended. […]

Row | SMILES | AUCtot/MAP following ES CN compared to control healthy Wistar rats (acute sildenafil 0.3 mg/kg combined with chronic compound 5 30mg/kg/day, Figure 1B) | AUCtot/MAP (pro-erectile facilitator effects) (chronic compound 5 30mg/kg/day combined with acute sildenafil iv 0.3mg/kg, p≤0.0001 vs. GK rats, 2-way ANOVA with interaction, figure 1B) | AUC45/MAP (pro-erectile facilitator effects) (chronic compound 5 30mg/kg/day combined with acute sildenafil iv 0.3mg/kg, p≤0.0001 vs. GK rats, 2-way ANOVA, Figure 1A) | erectile responses (AUC45/MAP) compared to healthy Wistar rats (chronic compound 5 alone at 30mg/kg/day, Figure 1A) | increase in AUCtot/MAP compared to each compound administered alone (combination of chronic compound 5 30mg/kg/day and acute sildenafil 0.3mg/kg, p≤0.0001 vs acute sildenafil, p≤0.05 vs chronic compound 5, Figure 1B) | AUCtot/MAP (erectile responses to ES CN) (compound 5 alone, 30mg/kg once daily oral for 4 weeks, compared to GK rats treated with vehicle, p=0.147, figure 1B) | AUC45/MAP (erectile responses to ES CN) (compound 5 alone, 30mg/kg once daily oral for 4 weeks, compared to GK rats treated with vehicle, p≤0.05, figure 1A) | erectile responses (AUC45/MAP) compared to healthy Wistar rats (acute sildenafil alone, iv single administration 0.3mg/kg, Figure 1A) | erectile responses to ES CN (acute sildenafil alone, iv single administration at 0.3mg/kg)
1 | CN(C)c1cccc(-c2c3c(=O)n(-c4ccccc4Cl)[nH]c3cc(=O)n2C)c1 [compound 5, 2-(2-chlorophenyl)-4-[3-(dimethylamino)phenyl]-5-methyl-1H-pyrazolo[4,3-c] pyridine-3,6(2H,5H)-dione] | not significantly different | further increased | further increased | significantly lower | statistically significant | no statistical difference | statistically greater overall erectile responses |  | 
2 | CCCc1nn(C)c2c(=O)[nH]c(-c3cc(S(=O)(=O)N4CCN(C)CC4)ccc3OCC)nc12 [sildenafil, reference compound] |  |  |  |  |  |  |  | significantly lower | pro-erectile facilitator effects
